# Laboratory results taken from patent US20240067657A1, “AMIDO-SUBSTITUTED PYRIDYL COMPOUNDS AND METHODS OF USE THEREOF FOR THE TREATMENT OF HERPESVIRUSES” (Merck Sharp & Dohme LLC, priority 2020, published 2024).
# Like-named read-outs stand apart in the source and are kept apart here.
# Columns and labels:
# [1] = target: T1, Human cytomegalovirus DNA polymerase (Human cytomegalovirus, UniProt P08546); assay: HCMV polymerase assay (AlphaLISA, IC50); format: biochemical; details: polymerase assay of Example 190
# T1 construct: made in house; host or cells: SF21 insect cells (baculovirus vector)
# Method in brief: (§1)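 Baculovirus-expressed polymerase (HCMV 0.2 nM, VZV 0.4 nM final) preincubated 30 min at room temperature with compound in pH 7.5 HEPES buffer; reaction started with 1.6 nM DIG-primer/template and nM dNTPs including biotin-dUTP, run 60 min at 37° C. Incorporation detected by AlphaLISA; IC50 from 4-parameter fit.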
# [2] = target: T2, varicella zoster virus DNA polymerase (Varicella-zoster virus, UniProt P09252); assay: VZV polymerase assay (AlphaLISA, IC50); format: biochemical; details: polymerase assay of Example 190
# T2 construct: made in house; host or cells: SF21 insect cells (baculovirus vector)
# Method in brief: as §1
# [3] = tested on: HCMV Strain AD169 in MRC-5 cells; assay: Viral qPCR assay HCMV (V0/V1, V2/V3), EC50; format: cell-based
# Method in brief: (§2)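 Infected cells added to compounds (10-point 3-fold series), ~72 h at 37 °C, then lysed; viral genomes by TaqMan qPCR against plasmid standard, normalized to PPIA in V0/V1 only, EC50 from 4-parameter fit. HCMV AD169, 0.05-0.1 pfu/cell, ± 50% FBS; VZV 0.04-0.1 pfu/cell; HSV-1 F 0.0005-0.004 pfu/cell.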
# [4] = tested on: VZV in MeWo or MRC5 cells; assay: Viral qPCR assay VZV (V0/V1, V2/V3), EC50; format: cell-based
# Method in brief: as §2
# [5] = tested on: HSV-1 Strain F in Vero or MRC5 cells; assay: Viral qPCR assay HSV-1 (V0/V1, V2/V3), EC50; format: cell-based
# Method in brief: as §2
# [6] = Human betaherpesvirus 5, AD169, MRC5, viral qPCR assay of Example 191, read-out: HCMV Cell (EC50)
# [7] = Human alphaherpesvirus 3, MRC5, MRC5 cells, 10%, read-out: VZV Cell (EC50) MRC5 10%
# [8] = Human alphaherpesvirus 1, MRC5, MRC5 cells, 10%, read-out: HSV1 Cell (EC50) MRC5 10%
# [9] = Human alphaherpesvirus 3, MeWo, MEWO cells, 10%, read-out: VZV Cell (EC50) MEWO 10%
# [10] = Human alphaherpesvirus 1, Vero, VERO cells, 10%, read-out: HSV1 Cell (EC50) VERO 10%
# T1 sequence (P08546 whole entry): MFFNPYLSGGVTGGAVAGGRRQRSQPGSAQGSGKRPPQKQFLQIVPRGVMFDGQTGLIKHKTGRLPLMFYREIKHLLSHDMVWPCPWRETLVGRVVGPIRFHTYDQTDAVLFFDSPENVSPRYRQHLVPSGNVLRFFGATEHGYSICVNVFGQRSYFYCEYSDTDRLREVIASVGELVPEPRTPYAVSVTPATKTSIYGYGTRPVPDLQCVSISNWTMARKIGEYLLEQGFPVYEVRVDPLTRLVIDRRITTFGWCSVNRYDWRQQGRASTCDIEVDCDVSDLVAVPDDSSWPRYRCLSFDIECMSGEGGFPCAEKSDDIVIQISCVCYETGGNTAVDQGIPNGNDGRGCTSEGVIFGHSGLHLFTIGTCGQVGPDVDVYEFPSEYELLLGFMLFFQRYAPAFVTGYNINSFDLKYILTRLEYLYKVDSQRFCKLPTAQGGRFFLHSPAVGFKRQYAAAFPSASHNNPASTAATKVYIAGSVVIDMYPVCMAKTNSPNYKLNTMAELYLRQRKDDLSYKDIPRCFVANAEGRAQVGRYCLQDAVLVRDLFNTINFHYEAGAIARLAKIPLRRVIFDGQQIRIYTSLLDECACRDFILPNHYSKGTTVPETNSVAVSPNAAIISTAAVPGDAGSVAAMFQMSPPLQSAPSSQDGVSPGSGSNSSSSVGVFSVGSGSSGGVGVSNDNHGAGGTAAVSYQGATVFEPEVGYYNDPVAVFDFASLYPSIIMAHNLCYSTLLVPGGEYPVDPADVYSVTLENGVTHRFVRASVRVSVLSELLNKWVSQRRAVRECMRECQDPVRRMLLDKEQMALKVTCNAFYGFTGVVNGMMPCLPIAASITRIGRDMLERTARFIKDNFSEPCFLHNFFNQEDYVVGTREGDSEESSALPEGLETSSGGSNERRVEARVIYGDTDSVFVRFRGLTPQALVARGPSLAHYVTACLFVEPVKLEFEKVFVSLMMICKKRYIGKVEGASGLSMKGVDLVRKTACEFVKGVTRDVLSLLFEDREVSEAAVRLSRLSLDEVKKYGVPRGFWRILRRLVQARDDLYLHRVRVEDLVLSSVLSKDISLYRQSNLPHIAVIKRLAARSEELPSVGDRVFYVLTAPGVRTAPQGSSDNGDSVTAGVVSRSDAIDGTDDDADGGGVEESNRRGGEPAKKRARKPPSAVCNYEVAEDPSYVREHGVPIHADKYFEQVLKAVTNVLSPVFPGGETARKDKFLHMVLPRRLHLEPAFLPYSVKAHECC
# T2 sequence (P09252 whole entry): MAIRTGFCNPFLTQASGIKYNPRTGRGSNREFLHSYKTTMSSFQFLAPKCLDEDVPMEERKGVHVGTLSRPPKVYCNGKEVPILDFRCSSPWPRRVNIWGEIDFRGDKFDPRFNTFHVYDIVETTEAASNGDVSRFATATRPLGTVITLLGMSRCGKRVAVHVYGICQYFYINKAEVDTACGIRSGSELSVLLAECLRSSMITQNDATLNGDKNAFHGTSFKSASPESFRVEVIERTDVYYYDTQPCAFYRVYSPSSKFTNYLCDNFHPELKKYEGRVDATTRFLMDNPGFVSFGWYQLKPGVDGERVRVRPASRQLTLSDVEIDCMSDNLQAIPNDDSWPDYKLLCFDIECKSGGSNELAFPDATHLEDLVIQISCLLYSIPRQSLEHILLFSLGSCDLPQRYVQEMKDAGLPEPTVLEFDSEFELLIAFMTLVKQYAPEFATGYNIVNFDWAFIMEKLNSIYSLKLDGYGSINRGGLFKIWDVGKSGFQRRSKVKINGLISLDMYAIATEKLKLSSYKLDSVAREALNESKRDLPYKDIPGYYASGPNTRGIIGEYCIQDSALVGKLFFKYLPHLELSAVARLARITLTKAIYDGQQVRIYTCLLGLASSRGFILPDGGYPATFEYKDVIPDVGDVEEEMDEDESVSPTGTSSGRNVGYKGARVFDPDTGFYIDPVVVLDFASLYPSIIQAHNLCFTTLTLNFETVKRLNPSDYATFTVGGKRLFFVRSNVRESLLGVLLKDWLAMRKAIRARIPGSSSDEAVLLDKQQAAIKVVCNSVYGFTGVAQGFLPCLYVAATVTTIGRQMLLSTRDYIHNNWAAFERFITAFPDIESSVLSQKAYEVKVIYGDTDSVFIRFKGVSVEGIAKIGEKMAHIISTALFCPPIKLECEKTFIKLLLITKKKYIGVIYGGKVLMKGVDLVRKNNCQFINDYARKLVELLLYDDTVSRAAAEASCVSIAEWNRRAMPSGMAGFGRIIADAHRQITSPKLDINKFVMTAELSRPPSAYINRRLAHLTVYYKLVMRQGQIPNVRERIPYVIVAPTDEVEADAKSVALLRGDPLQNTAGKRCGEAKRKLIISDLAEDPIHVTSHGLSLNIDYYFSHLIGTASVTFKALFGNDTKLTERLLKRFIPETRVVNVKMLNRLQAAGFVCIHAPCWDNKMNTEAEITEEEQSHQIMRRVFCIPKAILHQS
smiles,measurement,setting,value
CSc1cnc(C(=O)NCc2ccc(Cl)cc2)cc1O[C@H]1CCN2C(=O)OC[C@@H]2C1 [Compound 147a],IC50,[1],19 nM
same,IC50,[2],23.4 nM
same,EC50,[3]; [6],245 nM
same,EC50,[4]; [7],622 nM
same,EC50,[5]; [8],414 nM
O=C(NCc1ccc(Cl)cc1)c1cc(O[C@H]2CCN3C(=O)OC[C@@H]3C2)c(-c2cnc(C(F)F)o2)cn1 [Compound 148],IC50,[1],2.53 nM
same,IC50,[2],4.47 nM
same,EC50,[3]; [6],163 nM
same,EC50,[4]; [7],229 nM
same,EC50,[5]; [8],129 nM
CCc1noc(-c2cnc(C(=O)NCc3ccc(Cl)cc3)cc2O[C@H]2CCN3C(=O)OC[C@@H]3C2)n1 [Compound 149],IC50,[1],16.4 nM
same,IC50,[2],6.31 nM
same,EC50,[3]; [6],124 nM
same,EC50,[4]; [7],269 nM
same,EC50,[5]; [8],125 nM
Cc1cc(-c2cnc(C(=O)NCc3ccc(Cl)cc3)cc2O[C@H]2CCN3C(=O)OC[C@@H]3C2)on1 [Compound 150],IC50,[1],7.76 nM
same,IC50,[2],≤ 0.444 nM
same,EC50,[3]; [6],110 nM
same,EC50,[4]; [7],144 nM
same,EC50,[5]; [8],78.2 nM
CS(=O)(=O)N1CCC(Oc2cc(C(=O)NCc3ccc(Cl)cc3)ncc2Cl)CC1 [Compound 151],IC50,[1],238 nM
same,IC50,[2],232 nM
same,EC50,[3]; [6],5340 nM
same,EC50,[4]; [9],1410 nM
same,EC50,[5]; [10],1030 nM
O=C(NCc1ccc(Cl)cc1)c1cc(O[C@H]2CCN3C(=O)OC[C@@H]3C2)c(C2CC2O)cn1 (stereo partly shown) [Compound 154],IC50,[1],36.7 nM
same,IC50,[2],11.4 nM
same,EC50,[3]; [6],255 nM
same,EC50,[4]; [7],896 nM
same,EC50,[5]; [8],662 nM
O=C(NCc1ccc(Cl)cc1)c1cc(O[C@H]2CCN3C(=O)OC[C@@H]3C2)c(/C=C/CO)cn1 [Compound 155],IC50,[1],7.37 nM
same,IC50,[2],4.71 nM
same,EC50,[3]; [6],204 nM
same,EC50,[4]; [7],251 nM
same,EC50,[5]; [8],243 nM
same,EC50,[5]; [10],419 nM
COC/C=C/c1cnc(C(=O)NCc2ccc(Cl)cc2)cc1O[C@H]1CCN2C(=O)OC[C@@H]2C1 [Compound 155b],IC50,[1],8.5 nM
same,IC50,[2],9.56 nM
same,EC50,[3]; [6],380 nM
same,EC50,[4]; [7],395 nM
same,EC50,[5]; [8],263 nM
same,EC50,[5]; [10],209 nM
Cn1cc(-c2cnc(C(=O)NCc3ccc(Cl)cc3)cc2OC2CCN3C(=O)OCC3(C)C2)cn1 (stereo not shown) [Compound 159],IC50,[1],59.2 nM
same,IC50,[2],19.3 nM
same,EC50,[3]; [6],441 nM
same,EC50,[4]; [9],277 nM
same,EC50,[5]; [10],329 nM
N#Cc1cnc(C(=O)NCc2ccc(Cl)cc2)cc1O[C@H]1CCN2C(=O)OCC[C@@H]2C1 [Compound 164],IC50,[1],18.3 nM
same,IC50,[2],2.37 nM
same,EC50,[3]; [6],436 nM
same,EC50,[4]; [7],684 nM
same,EC50,[5]; [8],469 nM
CC(=O)N1CC[C@@H](Oc2cc(C(=O)NCc3ccc(Cl)cc3)ncc2-c2cnc(C)o2)C[C@H]1C [Compound 165],IC50,[1],5.28 nM
same,IC50,[2],6.25 nM
same,EC50,[3]; [6],141 nM
same,EC50,[4]; [7],138 nM
same,EC50,[5]; [8],122 nM
O=C(NCc1ccc(Cl)cc1)c1cc(O[C@H]2CCN3C(=O)CC[C@@H]3C2)c(-c2cnn(C(F)F)c2)cn1 [Compound 166],IC50,[1],9.49 nM
same,IC50,[2],8.58 nM
same,EC50,[3]; [6],565 nM
same,EC50,[4]; [7],241 nM
same,EC50,[5]; [8],370 nM
CC(=O)N1CCC(Oc2cc(C(=O)NCc3ccc(Cl)cc3)ncc2-c2cnn(C(F)F)c2)CC1C (stereo not shown) [Compound 167],IC50,[1],28.6 nM
same,IC50,[2],8.55 nM
same,EC50,[3]; [6],198 nM
same,EC50,[4]; [7],679 nM
same,EC50,[5]; [8],423 nM
Cn1cc(-c2cnc(C(=O)NCc3ccc(Cl)cc3)cc2OC2CCC(C#N)CC2)cn1 (stereo not shown) [Compound 168],IC50,[1],104 nM
same,IC50,[2],67.6 nM
same,EC50,[3]; [6],1110 nM
same,EC50,[4]; [9],590 nM
same,EC50,[5]; [10],529 nM
C[C@@H]1CN(C)CCN1c1cc(C(=O)NCc2ccc(Cl)cc2)ncc1C#N [Compound 175],IC50,[1],48.2 nM
same,IC50,[2],76.9 nM
same,EC50,[3]; [6],1220 nM
same,EC50,[4]; [7],3320 nM
same,EC50,[5]; [8],3390 nM
C[C@@H]1CN(C)CCN1c1cc(C(=O)NCc2ccc(Cl)cc2)ncc1OCC(F)(F)F [Compound 176],IC50,[1],218 nM
same,IC50,[2],115 nM
same,EC50,"[3]; Human betaherpesvirus 5, AD169, MRC5, read-out: HCMV Cell (EC50)",2480 nM
same,EC50,"[4]; Human alphaherpesvirus 3, MeWo, read-out: VZV Cell (EC50) MEWO 10%",1240 nM
same,EC50,"[5]; Human alphaherpesvirus 1, Vero, read-out: HSV1 Cell (EC50) VERO 10%",2180 nM
